Experimental data as given in patent publication US7105553B2, “Thiazolyl amide derivatives” (Bayer Aktiengesellschaft, priority 1999, dated 2006).

| SMILES | melting point |
| --- | --- |
| CNS(=O)(=O)c1sc(N(C)C(=O)Cc2ccc(-c3ccc(Cl)cc3)cc2)nc1C | 186 °C |
| CNS(=O)(=O)c1sc(N(C)C(=O)Cc2ccc(-c3ccccc3Cl)cc2)nc1C | 128 °C |
| Cc1nc(N(C)C(=O)Cc2ccc(-c3cccc(N)c3)cc2)sc1S(N)(=O)=O | 209 °C |
| Cc1nc(N(C)C(=O)Cc2ccc(-c3ccccc3)cc2)sc1S(=O)(=O)NCCO | 167 °C |
| Cc1nc(N(C)C(=O)Cc2ccc(-c3cncnc3)cc2)sc1S(N)(=O)=O | 234 °C |
| Cc1nc(N(C)C(=O)Cc2ccc(-c3ncccc3F)cc2)sc1S(N)(=O)=O.Cl | 206 °C |
| CC(=O)Nc1cccc(-c2ccc(CC(=O)N(C)c3nc(C)c(S(N)(=O)=O)s3)cc2)c1 | 234 °C |
| Cc1nc(N(C)C(=O)Cc2ccc(-c3ccccc3)cc2)sc1S(=O)(=O)NCCO[Si](C)(C)C(C)(C)C | 128 °C |
| Cc1nc(N(C)C(=O)Cc2ccc(-c3ccccc3C(F)(F)F)cc2)sc1S(=O)(=O)NCCNC(=O)OC(C)(C)C | 156 °C |
| COCCN(C(=O)Cc1ccc(-c2cc(F)ccc2OC)cc1)c1nc(C)c(S(N)(=O)=O)s1 | 199 °C |
| Cc1nc(N(CCc2ccncc2)C(=O)Cc2ccc(-c3ccccc3)cc2)sc1S(N)(=O)=O | 204 °C |
| COCCCN(C(=O)Cc1ccc(-c2ccccc2)cc1)c1nc(C)c(S(N)(=O)=O)s1 | 148 °C |
| CCOc1ccc(CC(=O)N(CCN(C)C)c2nc(C)c(S(=O)(=O)NC)s2)cc1 | 153 °C |
| Cc1nc(N(C(=O)Cc2ccc(-c3ccccc3)cc2)C2CC2)sc1S(N)(=O)=O | 179 °C |
| CNS(=O)(=O)c1sc(N(C)C(=O)Cc2ccc(-c3cccc(Cl)c3)cc2)nc1C | 187 °C |
| CCCN(C(=O)Cc1ccc(-c2ccccc2)cc1)c1nc(C)c(S(N)(=O)=O)s1 | 154 °C |
| CNS(=O)(=O)c1sc(N(Cc2cccnc2)C(=O)Cc2ccc(-c3ccccc3)cc2)nc1C | 161 °C |
| CNS(=O)(=O)c1sc(N(CCCN2CCCC2=O)C(=O)Cc2ccc(-c3ccccc3)cc2)nc1C | 158 °C |
| CONS(=O)(=O)c1sc(N(C)C(=O)Cc2ccc(-c3ccccc3)cc2)nc1C | 129 °C |
| CCOCCNS(=O)(=O)c1sc(N(C)C(=O)Cc2ccc(-c3ccccc3)cc2)nc1C | 105 to 106 °C |
| COCCCNS(=O)(=O)c1sc(N(C)C(=O)Cc2ccc(-c3ccccc3)cc2)nc1C | 142 to 143 °C |
| CNS(=O)(=O)c1sc(N(C)C(=O)Cc2ccc(-c3cc(C)cc(C)c3)cc2)nc1C | 170 °C |
| CNS(=O)(=O)c1sc(N(C)C(=O)Cc2ccc(-c3cccc([N+](=O)[O-])c3)cc2)nc1C | 201 °C |

| SMILES | melting point |
| --- | --- |
| CCOCCCNS(=O)(=O)c1sc(N(CCCOCC)C(=O)Cc2ccc(-c3cccc(OC)c3)cc2)nc1C | 74 to 75 °C |
| CCOCCCNS(=O)(=O)c1sc(N(C)C(=O)Cc2ccc(-c3cccc(OC)c3)cc2)nc1C | 125 to 127 °C |
| CNS(=O)(=O)c1sc(N(C)C(=O)Cc2ccc(-c3cccc(OC(F)(F)F)c3)cc2)nc1C | 156 °C |
| CNS(=O)(=O)c1sc(N(C)C(=O)Cc2ccc(-c3ccccc3)cc2)nc1C | 180 °C |
| CNS(=O)(=O)c1sc(N(C)C(=O)Cc2ccc(-c3cccnc3)cc2)nc1C | 200 °C |
| CNS(=O)(=O)c1sc(N(C)C(=O)C(C)c2ccc(-c3ccccc3)cc2)nc1C (stereo not drawn) | 170 to 172 °C |
| CNS(=O)(=O)c1sc(N(CCNC(=O)OC(C)(C)C)C(=O)Cc2ccc(-c3ccccc3)cc2)nc1C | 188 °C |
| CCN(C(=O)Cc1ccc(-c2ccccc2)cc1)c1nc(C)c(S(=O)(=O)NCC(F)(F)F)s1 | 152 °C |
| Cc1nc(N(C)C(=O)Cc2ccc(-c3cccc(O[Si](C)(C)C(C)(C)C)c3)cc2)sc1S(N)(=O)=O | 161 °C |
| CNS(=O)(=O)c1sc(N(C)C(=O)Cc2ccc(-c3cncc(C#N)c3)cc2)nc1C | 130 °C |
| CNS(=O)(=O)c1sc(N(C)C(=O)Cc2ccc(-c3ccccc3C(F)(F)F)cc2)nc1C | 202 °C |
| COc1ccc(F)cc1-c1ccc(CC(=O)N(C)c2nc(C)c(S(N)(=O)=O)s2)cc1 | 219 °C |
| CCOc1ccc(CC(=O)N(Cc2ccncc2)c2nc(C)c(S(N)(=O)=O)s2)cc1 | 122 °C |
| Cc1nc(N(Cc2ccccn2)C(=O)Cc2ccc(-c3ccccc3)cc2)sc1S(N)(=O)=O | 205 °C |
| Cc1nc(N(Cc2cccnc2)C(=O)Cc2ccc(-c3ccccc3)cc2)sc1S(N)(=O)=O | 189 °C |
| CNS(=O)(=O)c1sc(N(C)C(=O)Cc2ccc(-c3ccccc3OC)cc2)nc1C | 192 °C |
| Cc1nc(N(C)C(=O)Cc2ccc(-c3ccccc3)cc2)sc1S(=O)(=O)NCCN | 138 °C |
| CNS(=O)(=O)c1sc(N(C)C(=O)Cc2ccc(-c3cncnc3)cc2)nc1C | 193 °C |
| Cc1nc(N(CCc2ccccn2)C(=O)Cc2ccc(-c3ccccc3)cc2)sc1S(N)(=O)=O | 136 °C |
| Cc1nc(N(CC2CC2)C(=O)Cc2ccc(-c3ccccc3)cc2)sc1S(N)(=O)=O | 161 °C |
| Cc1nc(N(CC2CCCO2)C(=O)Cc2ccc(-c3ccccc3)cc2)sc1S(N)(=O)=O (stereo not drawn) | 159 °C |
| Cc1nc(N(CCCN2CCCC2=O)C(=O)Cc2ccc(-c3ccccc3)cc2)sc1S(N)(=O)=O | 203 °C |
| Cc1nc(N(CCN2CCCC2=O)C(=O)Cc2ccc(-c3ccccc3)cc2)sc1S(N)(=O)=O | 202 °C |

The next lines start with the values.

| melting point | SMILES |
| --- | --- |
| 221 °C | Cc1nc(N(C)C(=O)Cc2ccc(-c3ncccc3C(F)(F)F)cc2)sc1S(N)(=O)=O |
| 218 °C | Cc1nc(N(C)C(=O)Cc2ccc(-c3ncccc3F)cc2)sc1S(N)(=O)=O |
| 225 °C | Cc1nc(N(C)C(=O)Cc2ccc(-c3ncccc3C(F)(F)F)cc2)sc1S(N)(=O)=O.Cl |
| 225 °C | CNS(=O)(=O)c1sc(N(C)C(=O)Cc2ccc(-c3ncccc3O)cc2)nc1C |
| 217 °C | Cc1nc(N(C)C(=O)Cc2ccc(-c3cnccn3)cc2)sc1S(N)(=O)=O |
| 187 °C | CNS(=O)(=O)c1sc(N(C)C(=O)Cc2ccc(-c3cnccn3)cc2)nc1C |
| 157 °C | CCOc1ccc(CC(=O)N(C)c2nc(C)c(S(=O)(=O)NC)s2)cc1 |
| 159 °C | Cc1nc(N(C)C(=O)Cc2ccc(-c3ccccc3)cc2)sc1S(=O)(=O)NCCOC(=O)CNC(=O)OC(C)(C)C |
| 130 °C | Cc1nc(N(C)C(=O)Cc2ccc(-c3ccccn3)cc2)sc1S(=O)(=O)NCCO[Si](C)(C)C(C)(C)C |
| 175 °C | Cc1nc(N(C)C(=O)Cc2ccc(-c3ccccn3)cc2)sc1S(=O)(=O)NCCO |
| 133 °C | CNS(=O)(=O)c1sc(NC(=O)Cc2ccc(-c3ccccc3)cc2)nc1C |
| 202 °C | CNS(=O)(=O)c1sc(N(C(=O)Cc2ccc(-c3ccccc3)cc2)C2CC2)nc1C |
| 163 °C | COCCN(C(=O)Cc1ccc(-c2ccccc2)cc1)c1nc(C)c(S(N)(=O)=O)s1 |
| 139 to 140 °C | CCOCCCNS(=O)(=O)c1sc(N(C)C(=O)Cc2ccc(-c3ccccc3)cc2)nc1C |
| 190 °C | CNS(=O)(=O)c1sc(N(C)C(=O)Cc2ccc(-c3ccccc3OC(F)(F)F)cc2)nc1C |
| 208 °C | Cc1nc(N(C)C(=O)Cc2ccc(-c3cccnc3)cc2)sc1S(N)(=O)=O |
| 177 °C | Cc1nc(N(C)C(=O)Cc2ccc(-c3cccnc3)cc2)sc1S(N)(=O)=O.Cl |
| 270 °C | CNS(=O)(=O)c1sc(N(C)C(=O)Cc2ccc(-c3cccnc3)cc2)nc1C.Cl |
| 125 to 127 °C | CCOCCNS(=O)(=O)c1sc(N(C)C(=O)Cc2ccc(OCC)cc2)nc1C |
| 168 °C | CNS(=O)(=O)c1sc(N(C)C(=O)Cc2ccc(Br)cc2)nc1C |
| 94 °C | CCOCCOCCOCCN(C(=O)Cc1ccc(-c2ccccc2)cc1)c1nc(C)c(S(N)(=O)=O)s1 |

| melting point | SMILES |
| --- | --- |
| 216 °C | Cc1nc(N(C)C(=O)Cc2ccc(-c3ccccc3)cc2)sc1S(=O)(=O)NCC(F)(F)F |
| 154 °C | CNS(=O)(=O)c1sc(N(C)C(=O)Cc2ccc(-c3cccc(OC)c3)cc2)nc1C |
| 108 °C | CCCN(C(=O)Cc1ccc(-c2ccccc2)cc1)c1nc(C)c(S(=O)(=O)NCC(F)(F)F)s1 |
| 80 °C | CNS(=O)(=O)c1sc(N(C)C(=O)Cc2ccc(-c3ncccc3N)cc2)nc1C |
| 113 °C | CNS(=O)(=O)c1sc(N(C)C(=O)Cc2ccc(-c3cnccc3C)cc2)nc1C |
| 167 °C | CNS(=O)(=O)c1sc(N(C)C(=O)Cc2ccc(-c3ccccc3C)cc2)nc1C |
| 190 °C | CNS(=O)(=O)c1sc(N(C)C(=O)Cc2ccc(-c3cccc(F)c3)cc2)nc1C |
| 68 to 70 °C | CCCCOc1ccc(CC(=O)N(C)c2nc(C)c(S(=O)(=O)NCCOCC)s2)cc1 |
| 130 °C | Cc1nc(N(Cc2ccncc2)C(=O)Cc2ccc(-c3ccccc3)cc2)sc1S(N)(=O)=O |
| 202 °C | Cc1nc(N(C)C(=O)Cc2ccc(-c3cccc([N+](=O)[O-])c3)cc2)sc1S(N)(=O)=O |
| 109 °C | CNS(=O)(=O)c1sc(N(C)C(=O)Cc2ccc(-c3cccc4c3oc3ccccc34)cc2)nc1C |
| 204 °C | Cc1ccncc1-c1ccc(CC(=O)N(C)c2nc(C)c(S(N)(=O)=O)s2)cc1 |
| 183 °C | Cc1cnc(N)c(-c2ccc(CC(=O)N(C)c3nc(C)c(S(N)(=O)=O)s3)cc2)c1 |
| 264 °C | Cc1nc(N(C)C(=O)Cc2ccc(-c3ncccc3N)cc2)sc1S(N)(=O)=O.Cl |
| 175 °C | Cc1nc(N(C)C(=O)Cc2ccc(-c3ccccc3)cc2)sc1S(=O)(=O)NCCN(C)C(=O)OC(C)(C)C |
| 202 °C | Cc1nc(N(C)C(=O)Cc2ccc(-c3cccc(F)c3F)cc2)sc1S(N)(=O)=O |
| 215 °C | Cc1nc(N(C)C(=O)Cc2ccc(-c3c(F)cccc3F)cc2)sc1S(N)(=O)=O |
| 117 °C | C=CCN(C(=O)Cc1ccc(-c2ccccc2)cc1)c1nc(C)c(S(N)(=O)=O)s1 |
| 154 °C | Cc1nc(N(Cc2ccccc2)C(=O)Cc2ccc(-c3ccccc3)cc2)sc1S(N)(=O)=O |
| 174 °C | Cc1nc(N(CCc2ccccc2)C(=O)Cc2ccc(-c3ccccc3)cc2)sc1S(N)(=O)=O |
